Results reported in PubChem BioAssay (NCI).
Values joined by “and” are separate entries in the source; they are usually repeats but may differ in a detail not shown here. Equal entries are not always repeated.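 Each compound was tested at five concentrations against cells in 96-well plates for 48 hours. GI50 is the concentration that inhibits growth by half. TGI marks complete inhibition of growth.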

Legend:
Experiment in all cases: growth of human tumour cells (NCI), 48 h
A549 NSCLC = system: A549 NSCLC
MOLT-4 leukemia = system: MOLT-4 leukemia
HT29 colon = system: HT29 colon
HCT-15 colon = system: HCT-15 colon
NCI-H460 lung = system: NCI-H460 lung
U251 CNS = system: U251 CNS
BT-549 breast = system: BT-549 breast
KM12 colon = system: KM12 colon
UACC-257 melanoma = system: UACC-257 melanoma
SN12C renal = system: SN12C renal

Structure (SMILES) | GI50 (A549 NSCLC) | TGI (A549 NSCLC) [µM] | GI50 (MOLT-4 leukemia) [µM] | TGI (MOLT-4 leukemia) [µM] | GI50 (HT29 colon) | TGI (HT29 colon) [µM] | GI50 (HCT-15 colon) | TGI (HCT-15 colon) [µM] | GI50 (NCI-H460 lung) | TGI (NCI-H460 lung) [µM] | GI50 (U251 CNS) | TGI (U251 CNS) [µM] | GI50 (BT-549 breast) | TGI (BT-549 breast) | GI50 (KM12 colon) | TGI (KM12 colon) [µM] | GI50 (UACC-257 melanoma) | TGI (UACC-257 melanoma) | GI50 (SN12C renal) | TGI (SN12C renal) [µM]
CCCNNC(=O)/C=C/c1ccc(CNCCc2c(C)[nH]c3ccccc23)cc1 | 0.0689 µM | 2.02 | 0.0152 | 4.09 | 0.0123 µM | 1.53 | 0.0954 µM | 3.16 | 0.0726 µM | 3.57 | 0.0306 µM | 0.207 | 0.28 µM | 4.71 µM | 0.0485 µM | 0.966 | 0.0323 µM | 0.627 µM | 0.0634 µM | 3.76
O=S(=O)(Nc1ccccc1Cl)c1ccc(-c2cnc(C3CC3)o2)cc1 | 0.867 µM | 99.7 | 0.71 | > 63.6 | 0.331 µM | > 41.2 | 0.282 µM | > 100 | 0.397 µM | 15.6 | 0.583 µM | > 100 | 2.12 µM | 69.3 µM | 0.393 µM | 32.4 | 19.2 µM | 75 µM | 0.797 µM | > 100
C=C1C(=O)O[C@@H]2C[C@@H](C)[C@@H]3C=CC(=O)[C@@]3(C)[C@@H](OC(=O)CC(=O)O[C@H]3[C@@H]4C(=C)C(=O)O[C@@H]4C[C@@H](C)[C@@H]4C=CC(=O)[C@]43C)[C@H]12 |  | 2.46 |  | < 0.0304 |  | 0.223 |  | 0.0773 |  | 0.361 |  | 0.149 |  | 0.161 µM |  | 0.16 |  | 0.0812 µM |  | 0.0763
COc1ccc2c(C)cc(N/N=C/c3ccc(OC)c4ccccc34)nc2c1 |  | 34.8 |  | 52.9 |  | 32.7 |  | 23.4 |  | 41.1 |  | 13.2 |  | 46.2 µM |  | 29.6 |  | 36.9 µM |  | 5.52
COc1cccc(-c2nc3sccn3c2-c2ccnc(NCCCNS(=O)(=O)c3cccc(F)c3)c2)c1 | 2.99 µM | > 100 | 1.84 | 5.46 | 3.01 µM | 23.9 | 2.63 µM | > 100 | 4.04 µM | > 100 | 4.77 µM | > 100 | 2.39 µM | 7.05 µM | 3.17 µM | 27.3 | 2.89 µM | 9.68 µM | 2.94 µM | > 100
C=C1C(O)C2C(=C(CCc3ccccc3)C13CC3)C(=O)C(C)(CO)C2O (stereo unspecified) | > 100 µM | > 100 | 64.1 | > 100 | > 100 µM | > 100 | > 100 µM | > 100 | > 100 µM | > 100 | > 100 µM | > 100 | > 100 µM | > 100 µM | > 100 µM | > 100 | > 100 µM | > 100 µM | > 100 µM | > 100
Cc1ccc(S(=O)(=O)NC(=O)C2C(=O)CC3(CCCCC3)CC2=O)cc1 |  | > 100 |  | > 100 |  | 92.5 |  | 62.4 |  | 74.9 |  | > 100 |  | 75 µM |  | 50 |  | 78.1 µM |  | 86.4
Cn1cc(C2=C(c3cn(CCCCN)c4ccccc34)C(=O)NC2=O)c2ccccc21 | > 25 µM | > 25 | > 25 | > 25 | > 25 µM | > 25 | > 25 µM | > 25 | > 25 µM | > 25 | > 25 µM | > 25 | > 25 µM | > 25 µM | > 25 µM | > 25 | > 25 µM | > 25 µM | > 25 µM | > 25
CCCN(CCCC(NC(C)=O)C(=O)NCc1ccccc1)C(=O)N(CCCl)N=O (stereo unspecified) |  | 68.7 |  | 28 |  | > 66.7 |  | 42.5 |  | 23.6 |  | 20.1 |  | 54.1 µM |  | 42.3 |  | 47.6 µM |  | > 76.1
COc1ccc(-c2cc(=O)c3ccc(C)nc3[nH]2)cc1 |  | > 100 |  | > 100 |  | > 100 |  | > 100 | > 100 µM | > 100 | > 100 µM | > 100 |  | > 100 µM |  | > 100 |  | > 100 µM |  | > 100
CCOC(=O)c1sc(-c2ccc(OS(=O)(=O)c3ccc(Br)s3)c(C=O)c2)nc1C | 22.7 µM | > 100 | 2.73 | 8.3 | 2.45 µM | 6.43 | 2.61 µM | 7.79 | 22.7 µM | 58.6 | 2.68 µM | 10.3 | 2.51 µM | 6.57 µM | 3.36 µM | 11.6 | 18.6 µM | 64.7 µM | 3.09 µM | 10.7
Nc1ccccc1C(=O)CC1OC(=O)c2ccccc21 (stereo unspecified) |  | > 100 |  | > 100 |  | > 100 |  | > 100 |  | > 100 |  | > 100 |  | 90.5 µM |  | > 100 |  | > 100 µM |  | > 100
Clc1nc(Cl)c2ncn(Cc3cccc(Cn4cnc5c(Cl)nc(Cl)nc54)c3)c2n1 | 11.3 µM | 26.3 | 3.48 | 13.7 | 4.42 µM | > 100 | 5.78 µM | 22.3 | 3.7 µM | 13.6 | 3.91 µM | 13.9 | 3.35 µM | 11.3 µM | 2.87 µM | 8.95 | 4.78 µM | 17.2 µM | 4.73 µM | 18.3
Cc1cc(=O)oc2cc(OC(=O)N(C)C)c(Cl)cc12 |  | > 100 |  | > 100 |  | > 100 |  | > 100 |  | > 100 |  | > 100 |  | > 100 µM |  | > 100 |  | > 100 µM |  | > 100
CC(C)(C)C(=O)c1c(C(F)(F)F)n([O-])c2ccccc2[n+]1=O | 0.485 µM | 1.26 | 0.157 | 0.853 | 0.368 µM |  | 0.365 µM | 0.914 | 0.439 µM | 1.52 | 0.341 µM | 1.16 | 0.428 µM | 1.59 µM | 0.905 µM | 2.4 | 1.46 µM | 5.57 µM | 0.665 µM | 2.32
FC(F)c1nc2ccccc2n1-c1nc(N2CCOCC2)nc(N2CCOCC2)n1 | 0.518 µM and 0.584 µM | > 100 | 0.347 | > 100 | 0.238 µM and 0.37 µM | > 100 | 0.389 µM and 0.479 µM | > 100 | 0.276 µM and 0.303 µM | > 100 | 0.735 µM and 0.559 µM | > 100 | 0.0992 µM and 0.145 µM | 1.26 µM and 3.97 µM | 0.739 µM and 0.969 µM | > 100 | 0.264 µM and 0.25 µM | 3.09 µM and 3.64 µM | 0.247 µM and 0.332 µM | > 100
